The values below come from ChEMBL document CHEMBL1126383, “P-3A and ()-desacetamido P-3A: demonstration and Study of their effective functional cleavage of duplex DNA” (Bioorg Med Chem Lett, 1992).

Holding throughout (format): functional
Experiment [1] deals with Nucleic Acid. In words: DNA cleavage selectivity selected within singly 5' -end labeled w794 DNA was determined; N - None.
In experiment [2] the test system is Nucleic Acid. Briefly: Relative efficiency of supercoiled phi X174 DNA cleavage was determined.
Experiment [3] has as its system Nucleic Acid. In words: Relative efficiency of supercoiled phi X174 DNA cleavage was determined; 0.33-0.2.
In experiment [4] the test system is Nucleic Acid. Briefly: Relative efficiency of supercoiled phi X174 DNA cleavage was determined; 4-10.
Experiment [5] has as its system Nucleic Acid. Briefly: Relative efficiency of supercoiled phi X174 DNA cleavage was determined; 1.25-2.

Molecules are shown by their SMILES. The source made the active and inactive calls. The rule behind the calls is not given here.

Turning to `C[C@H](NC(=O)C(Cc1c[nH]cn1)NC(=O)c1cc(N)nc(C(CC(N)=O)NC[C@H](N)C(N)=O)n1)C(=O)O` (stereo partly specified), the Selectivity result in the experiment with Nucleic Acid [1] was “inactive”. For the same molecule, the Relative efficiency with Nucleic Acid [2] came to 1.
With `C[C@H](NC(=O)C(Cc1c[nH]cn1)NC(=O)c1cc(N)nc(CNC[C@H](N)C(N)=O)n1)C(=O)O` (stereo partly specified), the Selectivity entry in the experiment on Nucleic Acid [1] is “inactive”. The molecule further gave a Relative efficiency in the experiment with Nucleic Acid [3] of 0.2.
Turning to `Cc1c(N)nc([C@H](CC(N)=O)NC[C@H](N)C(N)=O)nc1C(=O)N[C@H](C(=O)N[C@H](C)[C@@H](O)[C@H](C)C(=O)N[C@H](C(=O)NCCc1nc(-c2nc(C(=O)NCCC[S+](C)C)cs2)cs1)[C@@H](C)O)[C@@H](O[C@@H]1O[C@@H](CO)[C@@H](O)[C@H](O)[C@@H]1O[C@H]1O[C@H](CO)[C@@H](O)[C@H](OC(N)=O)[C@@H]1O)c1c[nH]cn1`, the Relative efficiency in the experiment with Nucleic Acid [4] was 4.
Consider `Cc1c(N)nc(C(CC(N)=O)NC[C@H](N)C(N)=O)nc1C(=O)NC(C(=O)NC(C)C(O)[C@H](C)C(=O)NC(C(=O)NCCc1nc(-c2nc(C(=O)NCCC[S+](C)C)cs2)cs1)C(C)O)C(O)c1c[nH]cn1` (stereo partly specified), for which the Relative efficiency with Nucleic Acid [5] stood at 1.25.
